# According to ChEMBL document CHEMBL4665653, “VU6005806/AZN-00016130, an advanced M positive allosteric modulator (PAM) profiled as a potential preclinical development candidate” (Bioorg Med Chem Lett, 2019):
# The source made the active and inactive calls. The rule behind the calls is not given here.
# Experiments:
# [1] = Hepatic clearance in human; format: ADME
# [2] = Fraction unbound in rat plasma; format: ADME, cell-free
# [3] = Hepatic clearance in rat; format: ADME; details: in vivo
# [4] = biological target: T1, Muscarinic acetylcholine receptor M4 (Homo sapiens, UniProt P08173); assay: Positive allosteric modulation of human M4 receptor/Gqi5 in presence of EC20 acetylcholine by calcium mobilization assay; format: functional
# T1 sequence (P08173 whole entry): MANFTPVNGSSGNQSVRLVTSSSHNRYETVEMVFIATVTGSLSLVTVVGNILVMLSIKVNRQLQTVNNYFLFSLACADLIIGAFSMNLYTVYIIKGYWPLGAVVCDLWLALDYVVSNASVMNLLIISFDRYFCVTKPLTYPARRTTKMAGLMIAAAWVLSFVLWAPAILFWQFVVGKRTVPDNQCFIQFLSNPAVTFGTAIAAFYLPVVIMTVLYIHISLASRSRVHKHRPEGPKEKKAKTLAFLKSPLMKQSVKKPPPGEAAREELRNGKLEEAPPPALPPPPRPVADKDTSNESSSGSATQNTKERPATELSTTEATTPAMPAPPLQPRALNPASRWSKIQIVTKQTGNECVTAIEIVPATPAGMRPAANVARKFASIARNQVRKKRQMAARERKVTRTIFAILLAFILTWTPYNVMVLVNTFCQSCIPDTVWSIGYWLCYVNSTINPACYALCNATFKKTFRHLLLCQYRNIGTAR
# [5] = biological target: T2, Muscarinic acetylcholine receptor M5 (Homo sapiens) (UniProt P08912); assay: Positive allosteric modulation of human M5 receptor
# T2 sequence (whole entry): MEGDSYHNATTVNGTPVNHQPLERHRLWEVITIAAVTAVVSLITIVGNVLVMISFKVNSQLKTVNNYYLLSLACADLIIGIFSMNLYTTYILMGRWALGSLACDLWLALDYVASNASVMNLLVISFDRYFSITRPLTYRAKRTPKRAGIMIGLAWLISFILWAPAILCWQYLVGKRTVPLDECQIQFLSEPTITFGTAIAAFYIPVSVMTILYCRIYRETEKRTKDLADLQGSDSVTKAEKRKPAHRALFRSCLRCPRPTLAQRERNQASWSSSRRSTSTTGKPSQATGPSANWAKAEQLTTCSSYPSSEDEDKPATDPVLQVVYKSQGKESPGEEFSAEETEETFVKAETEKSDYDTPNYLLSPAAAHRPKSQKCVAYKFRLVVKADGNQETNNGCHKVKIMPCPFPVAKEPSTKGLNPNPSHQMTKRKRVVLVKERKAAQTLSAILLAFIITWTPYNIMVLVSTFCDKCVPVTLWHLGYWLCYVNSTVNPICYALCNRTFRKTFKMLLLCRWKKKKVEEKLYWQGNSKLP
# [6] = biological target: T3, Muscarinic acetylcholine receptor M2 (Homo sapiens, UniProt P08172); assay: Positive allosteric modulation of human M2 receptor/Gqi5 in presence of EC20 acetylcholine by calcium mobilization assay
# T3 sequence (P08172 whole entry): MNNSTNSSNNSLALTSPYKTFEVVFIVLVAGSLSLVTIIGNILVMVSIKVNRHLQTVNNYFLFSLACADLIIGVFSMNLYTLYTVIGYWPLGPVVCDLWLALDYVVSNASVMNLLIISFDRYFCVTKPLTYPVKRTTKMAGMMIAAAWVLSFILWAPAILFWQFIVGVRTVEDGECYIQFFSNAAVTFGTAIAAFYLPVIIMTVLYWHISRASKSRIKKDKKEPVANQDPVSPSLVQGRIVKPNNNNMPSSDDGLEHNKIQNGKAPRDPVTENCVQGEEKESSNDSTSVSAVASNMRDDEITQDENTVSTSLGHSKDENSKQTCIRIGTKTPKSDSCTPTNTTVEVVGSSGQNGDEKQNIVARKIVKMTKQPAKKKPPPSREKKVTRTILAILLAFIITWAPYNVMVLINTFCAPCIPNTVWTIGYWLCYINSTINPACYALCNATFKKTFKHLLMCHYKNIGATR
# [7] = biological target: Muscarinic acetylcholine receptor M3 (Homo sapiens, UniProt P20309); assay: Positive allosteric modulation of human M3 receptor
# Muscarinic acetylcholine receptor M3, sequence (P20309 whole entry, looked up): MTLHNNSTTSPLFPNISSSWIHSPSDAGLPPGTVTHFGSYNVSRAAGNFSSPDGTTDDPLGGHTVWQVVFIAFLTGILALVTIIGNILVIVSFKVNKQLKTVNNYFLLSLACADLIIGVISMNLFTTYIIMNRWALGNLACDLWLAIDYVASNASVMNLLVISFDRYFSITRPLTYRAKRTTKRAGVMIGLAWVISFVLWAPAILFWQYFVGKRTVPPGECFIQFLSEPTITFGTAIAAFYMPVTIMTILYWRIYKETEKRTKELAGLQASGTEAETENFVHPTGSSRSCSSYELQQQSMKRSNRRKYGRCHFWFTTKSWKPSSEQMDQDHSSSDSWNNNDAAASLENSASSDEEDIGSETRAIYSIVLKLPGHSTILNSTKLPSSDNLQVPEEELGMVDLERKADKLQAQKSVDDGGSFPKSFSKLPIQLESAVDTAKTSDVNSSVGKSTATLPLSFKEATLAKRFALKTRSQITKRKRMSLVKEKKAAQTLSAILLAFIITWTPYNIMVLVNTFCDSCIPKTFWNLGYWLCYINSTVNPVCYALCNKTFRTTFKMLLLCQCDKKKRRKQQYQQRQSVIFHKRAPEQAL
# [8] = Fraction unbound in human plasma; format: ADME, cell-free
# [9] = biological target: T4, Muscarinic acetylcholine receptor M1 (Homo sapiens) (UniProt P11229); assay: Positive allosteric modulation of human M1 receptor
# T4 sequence (whole entry): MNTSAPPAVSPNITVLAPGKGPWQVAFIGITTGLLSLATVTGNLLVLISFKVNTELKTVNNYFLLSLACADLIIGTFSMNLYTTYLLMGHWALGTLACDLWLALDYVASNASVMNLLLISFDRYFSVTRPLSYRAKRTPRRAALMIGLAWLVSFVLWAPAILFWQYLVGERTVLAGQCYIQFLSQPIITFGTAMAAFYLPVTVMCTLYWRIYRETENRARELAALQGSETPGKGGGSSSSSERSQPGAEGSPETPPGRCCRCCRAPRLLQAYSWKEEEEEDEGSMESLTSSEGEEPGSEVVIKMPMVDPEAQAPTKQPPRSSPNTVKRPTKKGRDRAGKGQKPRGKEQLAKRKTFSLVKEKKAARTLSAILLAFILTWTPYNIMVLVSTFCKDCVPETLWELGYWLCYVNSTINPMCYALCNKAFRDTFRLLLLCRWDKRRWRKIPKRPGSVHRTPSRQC
# [10] = Unbound brain-to-plasma concentration ratio in Sprague-Dawley rat at 0.1 to 0.2 mg/kg, iv measured after 0.25 hrs; format: ADME, organism-based; details: dose 0.1-0.2 mg/kg, read-out: K(p,uu,brain)
# [11] = tested on: P-gp; assay: Substrate activity at human P-gp expressed in MDCK-MDR1 cells assessed as efflux ratio; format: ADME, cell-based
# [12] = Brain to plasma permeability coefficient, Kp in Sprague-Dawley rat at 0.1 to 0.2 mg/kg, iv measured after 0.25 hrs; format: ADME, organism-based; details: dose 0.1-0.2 mg/kg
# [13] = biological target: T5, Muscarinic acetylcholine receptor M4 (Homo sapiens) (UniProt P08173); assay: Positive allosteric modulation of human M4 receptor/Gqi5 in presence of EC20 acetylcholine by calcium mobilization assay relative to acetylcholine; format: functional; details: filed as positive allosteric modulator
# T5 sequence (whole entry): T1 sequence (P08173 whole entry)
# [14] = Fraction unbound in rat brain; format: ADME, tissue-based
# [15] = biological target: T3, Muscarinic acetylcholine receptor M2; assay: Positive allosteric modulation of human M2 receptor/Gqi5 in presence of EC20 acetylcholine by calcium mobilization assay relative to acetylcholine; details: read-out: %max
CLH [1],fraction unbound [2],CLH [3],EC50 [4],Activity [5],EC50 [6],Activity [7],fraction unbound [8],Activity [9],Kp uu at 0.25 h [10],efflux ratio [11],Kp at 0.25 h [12],%max [13],fraction unbound [14],Emax [15],Compound
10.1 mL/min/kg,0.017,18.8 mL/min/kg,150 nM,inactive,> 30000 nM,inactive,0.02,inactive,0.88,3,0.29,49%,0.062,–,Cc1c(C(F)F)nnc2sc(C(=O)NC3CN(c4ncc(C(F)(F)F)cn4)C3)c(N)c12
4.39 mL/min/kg,0.028,10.6 mL/min/kg,90 nM,inactive,1160 nM,inactive,0.048,inactive,0.18,4,0.12,76%,0.41,30%,Cc1nnc2sc(C(=O)NC3CN(c4ncc(C(F)(F)F)cn4)C3)c(N)c2c1C
